Source: patent US9072293B2, “Cyclopropenes and method for applying cyclopropenes to agricultural products or crops” (Erum Biotechnologies Inc., priority 2010, dated 2015)
Several values for one entry are separate records, joined by “and”; a condition that tells them apart may be missing. Identical values can stand only once.

Assays:
tomato [1] = experiment: Experimental Example 1: Efficacy test on tomato using emulsion (reddening grade); type: in vivo; settings: individual tomatoes n=4
Experimental: In situ, a 1.0 mM 1-octylcyclopropene formulation was prepared using (trans)-1-octyl-1-(methanesulfonyloxy)-2-(trimethylsilyl)cyclopropane of Preparation Example 10 in the same manner as in Example 7. This solution was diluted to 1 to 100 times prior to use, as necessary. Experimental Example 1: Efficacy test on tomato using emulsion 1.0 mM formulations of five agents such as 1-(2-phenylethyl)cyclopropene, 1-(3-phenylpropyl)cyclopropene, 1-(4-phenylbutyl)cyclopropene, 1-(5-phenylpentyl)cyclopropene and 1-hexylcyclopropene were prepared in the same manner as in Example 1, and 1.0 mM and 100 μM solutions were prepared therefrom. Then, the effects of the solutions were compared with non-treated groups and control groups in which a surfactant or a stabilizing agent (sodium dodecylbenzenesulfonate or tristyrenylphenykethoxy)12ethanol) is dissolved.
Tomatoes whose top end began to turn pink were screened, harvested and divided into 12 groups (n=4) in total, i.e., non-treated groups, control groups (surfactant) and agent groups with different concentrations such as 100 μM and 1.0 mM. Tomatoes were treated with the prepared agent formulation using a household sprayer such that the surface thereof was saturated. The tomatoes were stood at room temperature (25-30° C.) for 3 days and a reddening level thereof was evaluated based on grades of 0 to 5.
(§1) At this time, the tops of tomatoes most early turned red, while the bottoms thereof most lately turned red. For this reason, in order to accurately evaluate the difference in reddening, the coloring evaluated was based on the area of red color, rather than the color of tomatoes. […] Accordingly, the grade level is proportional to the rate at which the tomatoes ripened.

[2] = Relative chemical stability of cyclopropenes measured by 1H-NMR; type: physicochemical; settings: for Stability (relative chemical stability, based on cyclopropenes having a chain length of 1): 1H-NMR, CDCl3, stored at −20° C. or room temperature, relative to chain length 1
Method in brief: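 Compounds in CDCl3 NMR tubes stored at −20° C. or room temperature and followed by 1H-NMR. Integrals of characteristic 1-alkylcyclopropene peaks (4–6.5 ppm, 1H; 0.8–0.9 ppm, 2H) compared against 1,1,3,3-tetramethylurea internal standard (2.80 ppm); stability expressed relative to chain-length-1 analogue.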

tomato [3] = experiment: Experimental Example 2: Efficacy test on tomato using oil based formulation (reddening grade); type: in vivo; design: key: an area in which the surface of tomato was colored in pink was 10% or less; an area in which the surface of tomato was completely colored in red was 10 to 40%; 2: an area in which the surface of tomato was completely colored in red was 40 to 70%; 3: an area in which the surface of tomato was completely colored in red was 70% or more and the bottom area remained green; 4: an area in which the surface of tomato was most colored in red and only a part of (0 to 10%) the bottom area remained green; 5: the surface of tomato did not entirely color in green; settings: 1.0 mM oil-based formulation, individual tomatoes n=4
From the text: as §1
As illustrated in Example 1, in situ, in accordance with the methods of Preparation Examples 15, 16, 17, 18 and 22, five agents (1.0 mmol) such as 1-(2-phenylethyl)cyclopropene, 1-(3-phenylpropyl)cyclopropene, 1-(4-phenylbutyl)cyclopropene, 1-(5-phenylpentyl)cyclopropene and 1-hexylcyclopropene were prepared, 5.0 ml of xylene and 5.0 ml of water were added to the reaction solution, vigorously stirred for 5 minutes and stood. When the mixture was separated into an organic layer (upper layer) and an aqueous layer (lower layer), only the organic layer was collected and the aqueous layer was discarded. […] of hexane was added to the organic layer and homogeneously mixed to prepare a 1.0 mM oil-based formulation.
The tomatoes were screened in the same manner as in Experimental Example 1 and divided into 7 groups (n=4) including a non-treated group, a control group (solvent-treated group) and 5 agent groups. Tomatoes were treated with the previously prepared agent using a household sprayer such that the surface thereof was saturated. The tomatoes were stood at room temperature (25-30° C.) for 3 days and a reddening level thereof was evaluated based on grades of 0 to 5.

[4] = 100 μM, Day 0, room temperature (25-30° C.)
[5] = 100 μM, Day 1, room temperature (25-30° C.)
[6] = 100 μM, Day 2, room temperature (25-30° C.)
[7] = 100 μM, Day 3, room temperature (25-30° C.)
[8] = 1.0 mM, Day 0, room temperature (25-30° C.)
[9] = 1.0 mM, Day 1, room temperature (25-30° C.)
[10] = 1.0 mM, Day 2, room temperature (25-30° C.)
[11] = 1.0 mM, Day 3, room temperature (25-30° C.)
[12] = Day 0, room temperature (25-30° C.)
[13] = Day 1, room temperature (25-30° C.)
[14] = Day 2, room temperature (25-30° C.)
[15] = Day 3, room temperature (25-30° C.)

Row | chemical stability (in words) [2] | Stability (relative chemical stability, based on cyclopropenes having a chain length of 1) [2] | SMILES | reddening level (grade 0 to 5) (tomato [1]; [4]) | reddening level (grade 0 to 5) (tomato [1]; [5]) | reddening level (grade 0 to 5) (tomato [1]; [6]) | reddening level (grade 0 to 5) (tomato [1]; [7]) | reddening level (grade 0 to 5) (tomato [1]; [8]) | reddening level (grade 0 to 5) (tomato [1]; [9]) | reddening level (grade 0 to 5) (tomato [1]; [10]) | reddening level (grade 0 to 5) (tomato [1]; [11]) | Tomato results: reddening level (grade 0 to 5) (tomato [3]; [12]) | Tomato results: reddening level (grade 0 to 5) (tomato [3]; [13]) | Tomato results: reddening level (grade 0 to 5) (tomato [3]; [14]) | Tomato results: reddening level (grade 0 to 5) (tomato [3]; [15])
1 | considerably stable | >10 | C1=C(CCc2ccccc2)C1 [(2-Phenylethyl), 1-(2-phenylethyl)cyclopropene] | 0 (an area in which the surface of tomato was colored in pink was 10% or less) (2×) and 1 (an area in which the surface of tomato was completely colored in red was 10 to 40%) and 2 (an area in which the surface of tomato was completely colored in red was 40 to 70%) | 1 (an area in which the surface of tomato was completely colored in red was 10 to 40%) (2×) and 3 (an area in which the surface of tomato was completely colored in red was 70% or more and the bottom area remained green) (2×) | 2 (an area in which the surface of tomato was completely colored in red was 40 to 70%) and 3 (an area in which the surface of tomato was completely colored in red was 70% or more and the bottom area remained green) and 4 (2×) | 3 (an area in which the surface of tomato was completely colored in red was 70% or more and the bottom area remained green) and 4 and 5 (2×) | 0 (an area in which the surface of tomato was colored in pink was 10% or less) (2×) and 1 (an area in which the surface of tomato was completely colored in red was 10 to 40%) and 2 (an area in which the surface of tomato was completely colored in red was 40 to 70%) | 1 (an area in which the surface of tomato was completely colored in red was 10 to 40%) (2×) and 2 (an area in which the surface of tomato was completely colored in red was 40 to 70%) and 3 (an area in which the surface of tomato was completely colored in red was 70% or more and the bottom area remained green) | 2 (an area in which the surface of tomato was completely colored in red was 40 to 70%) (2×) and 3 (an area in which the surface of tomato was completely colored in red was 70% or more and the bottom area remained green) and 4 | 3 (an area in which the surface of tomato was completely colored in red was 70% or more and the bottom area remained green) (2×) and 4 and 5 | 0 (an area in which the surface of tomato was colored in pink was 10% or less) (2×) and 1 (an area in which the surface of tomato was completely colored in red was 10 to 40%) and 2 (an area in which the surface of tomato was completely colored in red was 40 to 70%) | 1 (an area in which the surface of tomato was completely colored in red was 10 to 40%) (2×) and 2 (an area in which the surface of tomato was completely colored in red was 40 to 70%) and 3 (an area in which the surface of tomato was completely colored in red was 70% or more and the bottom area remained green) | 2 (an area in which the surface of tomato was completely colored in red was 40 to 70%) (2×) and 4 (2×) | 4 (2×) and 5 (2×)
2 | much more stable | >>10 | C1=C(CCCc2ccccc2)C1 [(3-Phenylpropyl), 1-(3-phenylpropyl)cyclopropene] | 0 (an area in which the surface of tomato was colored in pink was 10% or less) (2×) and 1 (an area in which the surface of tomato was completely colored in red was 10 to 40%) and 2 (an area in which the surface of tomato was completely colored in red was 40 to 70%) | 1 (an area in which the surface of tomato was completely colored in red was 10 to 40%) (3×) and 2 (an area in which the surface of tomato was completely colored in red was 40 to 70%) | 1 (an area in which the surface of tomato was completely colored in red was 10 to 40%) (2×) and 2 (an area in which the surface of tomato was completely colored in red was 40 to 70%) and 3 (an area in which the surface of tomato was completely colored in red was 70% or more and the bottom area remained green) | 2 (an area in which the surface of tomato was completely colored in red was 40 to 70%) (2×) and 3 (an area in which the surface of tomato was completely colored in red was 70% or more and the bottom area remained green) and 4 | 0 (an area in which the surface of tomato was colored in pink was 10% or less) (2×) and 1 (an area in which the surface of tomato was completely colored in red was 10 to 40%) and 2 (an area in which the surface of tomato was completely colored in red was 40 to 70%) | 0 (an area in which the surface of tomato was colored in pink was 10% or less) (2×) and 1 (an area in which the surface of tomato was completely colored in red was 10 to 40%) and 2 (an area in which the surface of tomato was completely colored in red was 40 to 70%) | 1 (an area in which the surface of tomato was completely colored in red was 10 to 40%) (2×) and 0 (an area in which the surface of tomato was colored in pink was 10% or less) and 3 (an area in which the surface of tomato was completely colored in red was 70% or more and the bottom area remained green) | 1 (an area in which the surface of tomato was completely colored in red was 10 to 40%) (2×) and 2 (an area in which the surface of tomato was completely colored in red was 40 to 70%) and 3 (an area in which the surface of tomato was completely colored in red was 70% or more and the bottom area remained green) | 0 (an area in which the surface of tomato was colored in pink was 10% or less) (2×) and 1 (an area in which the surface of tomato was completely colored in red was 10 to 40%) and 2 (an area in which the surface of tomato was completely colored in red was 40 to 70%) | 0 (an area in which the surface of tomato was colored in pink was 10% or less) (2×) and 1 (an area in which the surface of tomato was completely colored in red was 10 to 40%) and 2 (an area in which the surface of tomato was completely colored in red was 40 to 70%) | 0 (an area in which the surface of tomato was colored in pink was 10% or less) (2×) and 1 (an area in which the surface of tomato was completely colored in red was 10 to 40%) and 3 (an area in which the surface of tomato was completely colored in red was 70% or more and the bottom area remained green) | 1 (an area in which the surface of tomato was completely colored in red was 10 to 40%) (2×) and 2 (an area in which the surface of tomato was completely colored in red was 40 to 70%) and 4
